The values below come from patent US20040121994A1, “Novel amides that activate soluble guanylate cyclase” (priority 2002, published 2004).

Data set [1] concerns the target T1, soluble guanylate cyclase (sGC), α1 and β1 subunits of guanylate cyclase expressed in Sf9 cells (Homo sapiens, UniProt Q02108+Q02153).
T1 construct: made in house; host or cells: Sf9 insect cells (baculovirus co-infection)
T1 sequence (Q02108 1-690): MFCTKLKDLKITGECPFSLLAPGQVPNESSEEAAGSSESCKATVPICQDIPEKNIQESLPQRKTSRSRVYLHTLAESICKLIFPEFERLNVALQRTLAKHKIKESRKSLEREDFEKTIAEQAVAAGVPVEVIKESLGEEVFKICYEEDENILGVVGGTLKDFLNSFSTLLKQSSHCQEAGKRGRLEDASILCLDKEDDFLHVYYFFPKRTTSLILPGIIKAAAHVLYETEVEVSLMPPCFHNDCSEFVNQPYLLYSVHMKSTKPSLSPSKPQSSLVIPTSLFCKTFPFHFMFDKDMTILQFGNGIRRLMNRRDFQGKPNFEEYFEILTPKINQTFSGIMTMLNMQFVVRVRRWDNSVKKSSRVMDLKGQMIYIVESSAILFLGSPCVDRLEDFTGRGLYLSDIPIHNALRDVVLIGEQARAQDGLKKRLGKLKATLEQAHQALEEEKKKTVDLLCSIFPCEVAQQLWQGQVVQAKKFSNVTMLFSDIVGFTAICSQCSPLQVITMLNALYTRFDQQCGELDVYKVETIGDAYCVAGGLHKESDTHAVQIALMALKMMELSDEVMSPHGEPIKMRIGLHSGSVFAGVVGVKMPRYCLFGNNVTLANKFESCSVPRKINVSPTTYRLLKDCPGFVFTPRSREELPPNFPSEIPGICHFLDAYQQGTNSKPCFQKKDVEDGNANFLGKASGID
T1 sequence (Q02153 1-619): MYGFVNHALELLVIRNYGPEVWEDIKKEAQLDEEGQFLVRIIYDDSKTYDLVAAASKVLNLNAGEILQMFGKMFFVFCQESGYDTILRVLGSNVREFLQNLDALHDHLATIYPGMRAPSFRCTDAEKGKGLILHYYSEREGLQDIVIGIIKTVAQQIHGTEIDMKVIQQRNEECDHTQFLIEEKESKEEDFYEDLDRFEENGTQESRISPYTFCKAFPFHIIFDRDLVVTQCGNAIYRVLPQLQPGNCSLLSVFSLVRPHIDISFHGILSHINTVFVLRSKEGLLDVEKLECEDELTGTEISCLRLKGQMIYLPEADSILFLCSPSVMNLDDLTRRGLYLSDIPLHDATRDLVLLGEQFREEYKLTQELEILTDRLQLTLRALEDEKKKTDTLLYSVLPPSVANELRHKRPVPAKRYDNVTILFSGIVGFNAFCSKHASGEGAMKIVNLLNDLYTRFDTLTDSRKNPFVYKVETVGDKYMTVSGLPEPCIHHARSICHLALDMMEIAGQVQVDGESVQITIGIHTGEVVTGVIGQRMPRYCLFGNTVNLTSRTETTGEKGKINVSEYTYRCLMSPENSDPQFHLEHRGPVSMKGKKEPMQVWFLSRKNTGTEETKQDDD
As to the kind of experiment: Guanylate cyclase assay (formation of cyclic GMP from GTP). The data set is classed as biochemical. The following applies: for Mean activation at 100 μM: (activity of compound at 100 μM with 1 μM SNP)−(activity of compound at 100 μM)/(activity of SNP at 1 μM)−(basal activity of sGC); for Mean efficacy of compound combined with 1 μM of SNP, [%]: compound at 100 μM with 1 μM sodium nitro prusside (SNP); for Mean efficacy of compound combined with 1 μM of SNP, [%] / Emax at 100 µM: normalized with the activity of 100 μM YC-1 (without SNP) as 100%; for Emax at 100 µM: compound at 100 μM without SNP, read-out: Mean basal efficacy of compound alone at 100 μM, [%]. In short, it runs like this:
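Sf9 high-speed supernatant with human sGC α1/β1 converted 1 mM GTP to cGMP over 15 min at 37 °C (50 mM Tris pH 7.6, 4 mM MgCl2, 0.5 mM IBMX); cGMP by enzyme immunoassay. Compounds at 100 μM, with or without 1 μM SNP; activity expressed relative to 100 μM YC-1 (no SNP) as 100%.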

`COc1ccc(Sc2ccccc2/C=C/C(=O)NCCCCO)cc1` [Example 43, (2E)-N-(4-hydroxybutyl)-3-{2-[(4-methoxyphenyl)thio]phenyl}acrylamide] displayed a melting point of 134 to 136 °C. In data set [1], the “Mean activation at 100 μM” value is listed as 9.5; the “Mean efficacy of compound combined with 1 μM of SNP, [%]” value (shortened to “Mean efficacy … [%]”) came out at 160%; the Emax at 100 µM is 54%.
Regarding `O=C(/C=C/c1ccccc1Sc1ccc(Cl)cc1)NC1CCC(O)CC1` (stereo not drawn) [Example 30, (2E)-3-{2-[(4-chlorophenyl)thio]phenyl}-N-(4-hydroxycyclohexyl)acrylamide], the melting point was 86 to 88 °C. Besides, in data set [1], the “Mean activation at 100 μM” value is 3.4; the “Mean efficacy … [%]” value was 289%; the Emax at 100 µM was determined as 66%.
Regarding `CCCCCSc1ccccc1/C=C/C(=O)NC1CCC(O)CC1` (stereo not drawn) [Example 27, (2E)-N-(4-hydroxycyclohexyl)-3-[2-(pentylthio)phenyl]acrylamide], in data set [1], the “Mean activation at 100 μM” value was found to be 8.3; the “Mean efficacy … [%]” value is reported as 278%; the Emax at 100 µM worked out at 115%.
In the same order, the values of `CC(O)CCNC(=O)/C=C/c1ccccc1Sc1ccc(Cl)cc1` (stereo not drawn) [Example 38, (2E)-3-{2-[(4-chlorophenyl)thio]phenyl}-N-(3-hydroxybutyl)acrylamide] are 19.0, 259% and 60%.
In the same order, the values of `COc1cccc(Sc2ccccc2/C=C/C(=O)NC2CCC(O)CC2)c1` (stereo not drawn) [Example 50, (2E)-N-(4-hydroxycyclohexyl)-3-{2-[(3-methoxyphenyl)thio]phenyl}acrylamide] are 6.4, 175% and 68%.
In the same order, the values of `O=C(/C=C/c1ccccc1Sc1ccc(Cl)cc1)NCCCCCO` [Example 35, (2E)-3-{2-[(4-chlorophenyl)thio]phenyl}-N-(5-hydroxypentyl)acrylamide] are 6.3, 228% and 49%.
Take `O=C(/C=C/c1c(F)cccc1Sc1ccc(Cl)cc1)NCCCCO` [Example 41, (2E)-3-{2-[(4-chlorophenyl)thio]-6-fluorophenyl}-N-(4-hydroxybutyl)acrylamide]: in data set [1], the “Mean activation at 100 μM” value is listed as 3.8; the “Mean efficacy … [%]” value turned out to be 69%; the Emax at 100 µM was 5%.
The corresponding values for `CC(C)CCSc1ccccc1/C=C/C(=O)N1CCCC(O)C1` (stereo not drawn) [Example 61, 1-((2E)-3-{2-[(3-methylbutyl)thio]phenyl}-2-propenoyl)-3-piperidinol] are 10.2, 165% and 103%.
`O=C(CCc1ccccc1Sc1ccc(Cl)cc1)NCCCCO` [Example 1, 3-{2-[(4-chlorophenyl)thio]phenyl}-N-(4-hydroxybutyl)propanamide]: in data set [1], the “Mean activation at 100 μM” value was 2.4; the “Mean efficacy … [%]” value amounted to 25%; the Emax at 100 µM was 4%.
In the same order, the values of `Cc1ccc(Sc2ccccc2/C=C/C(=O)NCCCCO)cc1` [Example 36, (2E)-N-(4-hydroxybutyl)-3-{2-[(4-methylphenyl)thio]phenyl}acrylamide] are 9.2, 212% and 66%.
In the same order, the values of `O=C(CCc1cc(F)ccc1Sc1ccc(Cl)cc1)NCCCCO` [Example 8, 3-{2-[(4-chlorophenyl)thio]-5-fluorophenyl}-N-(4-hydroxybutyl)propanamide] are 3.1, 16% and 0%.
`CONCCCCNC(=O)CCc1ccccc1Sc1ccc(Cl)cc1` [Example 12, 3-{2-[(4-chlorophenyl)thio]phenyl}-N-[4-(methoxyamino)butyl]propanamide]: in data set [1], the “Mean activation at 100 μM” value was 1.5; the “Mean efficacy … [%]” value is on record as 20%; the Emax at 100 µM is 2%.
In the same order, the values of `CC(C)CCSc1ccccc1/C=C/C(=O)NC1CCC(O)CC1` (stereo not drawn) [Example 55, (2E)-N-(4-hydroxycyclohexyl)-3-{2-[(3-methylbutyl)thio]phenyl}acrylamide] are 5.3, 213% and 143%.
In the same order, the values of `CNCCCCCNC(=O)CCc1ccccc1Sc1ccc(Cl)cc1` [Example 14, 3-{2-[(4-chlorophenyl)thio]phenyl}-N-[5-(methylamino)pentyl]propanamide] are 4.4, 124% and 30%.
`O=C(/C=C/c1ccccc1Sc1ccc(Cl)cc1Cl)NCCCCO` [Example 29, (2E)-3-{2-[(2,4-dichlorophenyl)thio]phenyl}-N-(4-hydroxybutyl)acrylamide] had a melting point of 68 to 71 °C. In data set [1], the “Mean activation at 100 μM” value is given as 2.9; the “Mean efficacy … [%]” value turned out to be 110%; the Emax at 100 µM was determined as 69%.
`CCC(O)CNC(=O)/C=C/c1ccccc1Sc1ccc(Cl)cc1` (stereo not drawn) [Example 39, (2E)-3-{2-[(4-chlorophenyl)thio]phenyl}-N-(2-hydroxybutyl)acrylamide]: in data set [1], the “Mean activation at 100 μM” value was found to be 19.3; the “Mean efficacy … [%]” value was found to be 305%; the Emax at 100 µM amounted to 73%.
In the case of `CCNC(=O)/C=C/c1ccccc1Sc1ccc(Cl)cc1` [Example 32, (2E)-3-{2-[(4-chlorophenyl)thio]phenyl}-N-ethylacrylamide], in data set [1], the “Mean activation at 100 μM” value was 10.5; the “Mean efficacy … [%]” value came out at 78%; the Emax at 100 µM came to 27%.

As a reminder, the melting point is the temperature, or range, at which the solid turns liquid.
